This is an account of results in ChEMBL document CHEMBL5329205, “Development of novel quinoline-NO donor hybrids inducing human breast cancer cells apoptosis via inhibition of topoisomerase I” (Bioorg Med Chem, 2023).

Data set [1] has as its system A549. In words: Antiproliferative activity against human A549 cells assessed as inhibition of cell growth incubated for 48 hrs by MTT assay. The format is functional, cell-based. The following applies: A549, 48 h. Background: Tetrazolium assays rely on reduction of a dye to a coloured formazan, in cell work by metabolically active cells.
The test system of data set [2] is HCT-116. In words: Antiproliferative activity against human HCT-116 cells assessed as inhibition of cell growth incubated for 48 hrs by MTT assay. Type of data set: functional, cell-based. The following applies: HCT-116, 48 h.
Data set [3] deals with MCF7. In words: Antiproliferative activity against human MCF7 cells assessed as inhibition of cell growth incubated for 48 hrs by MTT assay. The format is functional, cell-based. The following applies: MCF7, 48 h.
The test system of data set [4] is NCI/ADR-RES. The data set can be described thus: Antiproliferative activity against human MCF7ADR cells assessed as inhibition of cell growth measured after 48 hrs by MTT assay. Type of data set: functional, cell-based.
Data set [5] can be described thus: Cytotoxicity against human MCF-10A cells assessed as cell growth inhibition measured after 48 hrs by MTT assay. Type of data set: toxicity, cell-based.
Data set [6] has as its system MCF7. In words: Antitumor activity against human MCF7 cells xenografted in BALB/c nude mouse assessed as reduction in tumor weight at 10 mg/kg, ip administered once every two days for 3 weeks relative to control. The arrangement: scale not given: the % may be the effect or the level left. Type of data set: functional. Background: A xenograft is tissue or cells of one species grown in another, often human tumour cells in immunodeficient mice.

A short description of data set [7]: Toxicity in BALB/c mouse xenografted with human MCF7 cells assessed as heart damage at 10 mg/kg, ip administered once every two days for 3 weeks by H and E staining based microscopic analysis. The following applies: in vivo, 504 h. Type of data set: organism-based.
Data set [8] can be described thus: Toxicity in BALB/c mouse xenografted with human MCF7 cells assessed as liver damage at 10 mg/kg, ip administered once every two days for 3 weeks by H and E staining based microscopic analysis. The format is organism-based. The following applies: in vivo, 504 h.
The nature of data set [9]: Toxicity in BALB/c mouse xenografted with human MCF7 cells assessed as spleen damage at 10 mg/kg, ip administered once every two days for 3 weeks by H and E staining based microscopic analysis. Type of data set: organism-based. The following applies: in vivo, 504 h.
Data set [10] is described as follows: Toxicity in BALB/c mouse xenografted with human MCF7 cells assessed as lung damage at 10 mg/kg, ip administered once every two days for 3 weeks by H and E staining based microscopic analysis. The format is organism-based. The following applies: in vivo, 504 h.
A short description of data set [11]: Toxicity in BALB/c mouse xenografted with human MCF7 cells assessed as kidney damage at 10 mg/kg, ip administered once every two days for 3 weeks by H and E staining based microscopic analysis. Type of data set: organism-based. The following applies: in vivo, 504 h.

Take `COc1cc(-c2cc(C(=O)OCCOc3no[n+]([O-])c3S(=O)(=O)c3ccccc3)c3ccccc3n2)cc(OC)c1OC`: the IC50 (commonly the concentration that inhibits the measured activity by half) in data set [1] is 2.69 µM; in data set [2], 3.79 µM; in data set [3] it was 2.25 µM; in data set [4] it was 3.35 µM. Besides, the IC50 at 48 h in [5] amounted to 16.3 µM.

Consider `CC(=O)O[C@H]1C(=O)[C@@]2(C)[C@H]([C@H](OC(=O)c3ccccc3)[C@]3(O)C[C@H](OC(=O)[C@H](O)[C@@H](NC(=O)c4ccccc4)c4ccccc4)C(C)=C1C3(C)C)[C@]1(OC(C)=O)CO[C@@H]1C[C@@H]2O` [PACLITAXEL], for which the Activity was 61.18% in data set [6]; “Non-Toxic” in data set [7]; “Non-Toxic” in [8]; “Non-Toxic” in [9]; “Non-Toxic” in [10]; “Non-Toxic” in data set [11].

For `COc1cc(-c2cc(C(=O)OCCCOc3no[n+]([O-])c3S(=O)(=O)c3ccccc3)c3ccccc3n2)cc(OC)c1OC`, the IC50 in [1] was found to be 2.3 µM; in data set [2], 2.49 µM; in data set [3] it was 1.66 µM; in data set [4], 1.27 µM. For the same compound, the IC50 at 48 h in data set [5] came out at 30.7 µM.

Regarding `O=S(=O)(c1ccccc1)c1c(OCCCCCO)no[n+]1[O-]`, the IC50 in data set [3] is 14.4 µM.

As to `COc1cc(-c2cc(C(=O)OCCCCOc3no[n+]([O-])c3S(=O)(=O)c3ccccc3)c3ccccc3n2)cc(OC)c1OC`, the IC50 in [1] came to 2.41 µM; in data set [2], 2.03 µM; in data set [3] it was 1.47 µM; in data set [4], 1.09 µM. Also, the IC50 at 48 h in [5] is 36.5 µM.

`O=C(OCCCCCCOc1no[n+]([O-])c1S(=O)(=O)c1ccccc1)c1ccnc2ccccc12`: the IC50 in [1] was above 5 µM; in data set [2], 4.97 µM; in data set [3] it was 4.22 µM; in [4], 5.51 µM. In addition, the IC50 at 48 h in data set [5] was found to be 34.1 µM.

As to `O=C(O)c1ccnc2ccccc12`, the IC50 in [1], in data set [2], in [3] and in data set [4] was above 50 µM throughout. In addition, in data set [5], the IC50 at 48 h is above 50 µM.

`COc1cc(-c2cc(C(=O)OCCCCCCOc3no[n+]([O-])c3S(=O)(=O)c3ccccc3)c3ccccc3n2)cc(OC)c1OC`: the half-inhibitory concentration (IC50) in data set [1] amounted to 2.71 µM; in [2], 4.35 µM; in [3], 3.16 µM; in data set [4] it was 3.32 µM. In data set [5], the IC50 at 48 h is 28.2 µM.

As to `COc1cccc2c1C(=O)c1c(O)c3c(c(O)c1C2=O)C[C@@](O)(C(=O)CO)C[C@@H]3O[C@H]1C[C@H](N)[C@H](O)[C@H](C)O1` [DOXORUBICIN], the figures for the 50% inhibitory concentration (IC50) in [1] and in data set [2] were 0.57 µM and 0.72 µM, respectively.

`O=C(OCCCCCOc1no[n+]([O-])c1S(=O)(=O)c1ccccc1)c1ccnc2ccccc12`: the IC50 in data set [1] was above 5 µM; in [2], 4.95 µM; in [3], above 5 µM; in data set [4] it was 4.66 µM. For the same compound, the IC50 at 48 h in data set [5] was 4.21 µM.

On to `O=C(OCCCCOc1no[n+]([O-])c1S(=O)(=O)c1ccccc1)c1ccnc2ccccc12`, for which the IC50 in data set [1] was above 5 µM; in data set [2] it was 4 µM; in [3] it was 4.22 µM; in data set [4], 4.28 µM. Also, the IC50 at 48 h in data set [5] worked out at 32.2 µM.

For `O=C(OCCOc1no[n+]([O-])c1S(=O)(=O)c1ccccc1)c1ccnc2ccccc12`, the IC50 in [1] was 3.49 µM; in data set [2], above 5 µM; in data set [3], 4.6 µM; in data set [4], 3.32 µM. In addition, the 50% inhibitory concentration (IC50) at 48 h in data set [5] came out at 23.2 µM.

Consider `COc1cc(-c2cc(C(=O)O)c3ccccc3n2)cc(OC)c1OC`, for which, in [3], the IC50 was above 50 µM.

On to `O=C(OCCCOc1no[n+]([O-])c1S(=O)(=O)c1ccccc1)c1ccnc2ccccc12`, for which the half-inhibitory concentration (IC50) in [1] is above 5 µM; in data set [2] it was 4.37 µM; in data set [3], 4.23 µM; in data set [4], 5.16 µM. Also, the IC50 at 48 h in data set [5] came out at 25.4 µM.
